pIC50, pKd: −log10 of the molar value. One block for each compound: values may come before it.
Experiments:
[1] = test system: protein kinases including Bcr–Abl; set-up: method as in Park et al. [2012]; conditions: ref Park et al. [2012]; cited from earlier work
[2] = test system: colon cancer cell lines RKO and HCT116; experiment: FMCA primary screening at 10 μM; format: cell-based, human; conditions: 10 μM drug concentration; both cell lines; hit criterion SI <40 %
Method: For primary screening, the colon cancer cell lines HCT 116 and RKO, obtained from American Type Culture Collection (ATCC; Rockville, MD, USA), were cultured in McCoy’s 5a medium supplemented with 10 % heat-inactivated fetal bovine serum, 2 mM L-glutamine, 100 μg/ml streptomycin and 100 U/ml penicillin (all from Sigma-Aldrich St. Louis, MO, USA).
The Pharmakon 1600 library (Microsource Inc, MO, USA) consists of 1,600 annotated compounds previously used in the clinical setting. The library was delivered in […] each containing 80 compounds at a concentration of 10 mM dissolved in DMSO. For the primary screening, aliquots of the DMSO solutions were transferred to 384-well Labcyte source plates (Labcyte Inc, CA, USA) using a Biomek 2000 and stored at room temperature in containers under nitrogen atmosphere. These source plates were subsequently used to deliver 10 μM (final concentration) of each drug to 384-well screening plates using a acoustic dispensing Echo 550 instrument equipped with Labcytes Access robotics (Labcyte).
(§1) The fluorometric microculture cytotoxicity assay (FMCA), described in detail previously (Lindhagen et al. [2008]), was used for measurement of the cytotoxic effect of library compounds and the established standard drugs. The FMCA is based on measurement of fluorescence generated from hydrolysis of fluorescein diacetate (FDA) to fluorescein by cells with intact plasma membranes. Cells were seeded in 384-well plates using the pipetting robot Precision 2000 (Bio-Tek Instruments Inc, Winooski, VT) and cultured over night before drugs were added by the Echo 550 system. […] Results are expressed as survival index (SI), defined as fluorescence of experimental wells in per cent of unexposed control wells with blank values subtracted.
Screening data were exported to Vortex (Dotmatics Inc, UK) software for analysis. […] Structural similarity to other compounds in the library was calculated based on a structural fingerprint consisting of chemical fragments located within the compound as computed by Vortex. […]

[3] = test system: refractory metastatic colon cancer; set-up: method as in case report accepted for publication in Acta Oncologica; conditions: 100 mg twice daily, ref case report accepted for publication in Acta Oncologica, cited from earlier work
panel of 97 kinases = experiment: KINOMEscan binding assay, whole panel; conditions: for kinase binding: 10 µM, panel of 97 kinases; for Interactions Mapped / S-Score(35): 10 μM; for Interactions Mapped: 97 Assays Tested; for S-Score(35): number of non-mutant kinases with POC <35/number of non-mutant kinases tested
Method: (§2) The binding affinities of ABZ and MBZ were tested at 10 μM in a high-throughput binding assay (KINOMEscan, Discoverx, CA, USA) against a panel of 97 kinases tagged with DNA (Davis et al. [2011]). Compounds that bind the kinase active site and directly or indirectly prevent kinase binding to an immobilized ligand will reduce the amount of kinase captured on solid support. […] Hits are identified by measuring the amount of kinase captured in test versus control samples by using a quantitative PCR method that detects the associated DNA label (http://www.discoverx.com/tools-resources/publications-references). Results are presented as percent of control (POC). Selectivity score (S-score) is a quantitative measure of compound selectivity. S(35) is calculated as number of non-mutant kinases with POC <35/number of non-mutant kinases tested. Binding constants were determined with the same method using 11-point threefold serial dilutions of the compound. Curves were fitted using a nonlinear least square fit with the Levenberg–Marquardt algorithm (Davis et al. [2011]).

NCI 60 cell line panel [4] = experiment: NCI 60 growth inhibitory screen data mining (Cellminer); format: cell-based
Method: Analysis of data from the National Cancer Institute growth inhibitory screen in 60 cell lines (NCI 60 GI 50 data) was performed with the help by the NCI Cellminer database (http://discover.nci.nih.gov/cellminer/). Z scores are determined for each experiment/cell line pair by the subtraction from its intensity by the experiment mean (across the 60 cell lines) and division by the standard deviation of the experiment (across the 60 cell lines). The z score average was then calculated as the mean across all experiments that passed quality control criteria. The z score will have a mean of zero and a standard deviation of one.

[5] = test system: colon cancer cell lines (HCT 116, RKO, HT29, HT-8 and SW626); experiment: FMCA concentration-response, colon cancer cell lines; format: cell-based; conditions: Homo sapiens; all 5 colon cancer cell lines; 72 h FMCA
Method: The colon cancer cell lines HT29, HT-8 and SW626 and the normal phenotype non-malignant epithelial MCF 10A, renal RPTEC/TERT1 and hepatocyte NeHepLxHT cell lines were used for validation experiments. These cell lines were all obtained from ATCC and cultured according to the protocols provided by the supplier. All the cell lines were cultured at 37 °C in a humidified atmosphere containing 5 % CO2.
For dose–response studies, Labcyte source plates and the Echo dispenser were used in a similar manner to deliver different concentrations of each drug to destination plates using on board software protocols (Labcyte).
as §1, with “membranes.” for “membranes. Cells were seeded in 384-well plates using the pipetting robot Precision 2000 (Bio-Tek Instruments Inc, Winooski, VT) and cultured over night before drugs were added by the Echo 550 system.”
Concentration–response data of screening hits and standard agents were analyzed using the software GraphPad Prism4 (GraphPad Software Inc., San Diego, CA, USA). […]

glioma = test system: glioma; set-up: method as in Bai et al. [2011]; conditions: two orthotopic mouse models of glioma; ref Bai et al. [2011]; cited from earlier work
JNK3 = target: T1, JNK3 (Homo sapiens, UniProt P53779); experiment: KINOMEscan binding assay
T1 construct: purchased Discoverx (KINOMEscan service)
T1 sequence (P53779 whole entry): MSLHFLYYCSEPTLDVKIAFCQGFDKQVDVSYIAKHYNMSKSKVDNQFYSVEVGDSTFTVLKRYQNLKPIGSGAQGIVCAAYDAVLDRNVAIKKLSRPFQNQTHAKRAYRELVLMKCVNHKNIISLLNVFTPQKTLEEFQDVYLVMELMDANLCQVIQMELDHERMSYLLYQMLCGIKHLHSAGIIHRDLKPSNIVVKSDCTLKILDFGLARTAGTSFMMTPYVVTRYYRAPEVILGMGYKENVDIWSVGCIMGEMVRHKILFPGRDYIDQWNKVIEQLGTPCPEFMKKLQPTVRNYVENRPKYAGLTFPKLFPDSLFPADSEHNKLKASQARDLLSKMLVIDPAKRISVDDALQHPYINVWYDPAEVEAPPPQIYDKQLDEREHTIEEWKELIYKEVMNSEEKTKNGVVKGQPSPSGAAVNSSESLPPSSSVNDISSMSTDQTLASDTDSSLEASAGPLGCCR
Method: as §2

KIT = target: T2, KIT (Homo sapiens, UniProt P10721); experiment: KINOMEscan binding assay
T2 construct: purchased Discoverx (KINOMEscan service)
T2 sequence (P10721 26-976): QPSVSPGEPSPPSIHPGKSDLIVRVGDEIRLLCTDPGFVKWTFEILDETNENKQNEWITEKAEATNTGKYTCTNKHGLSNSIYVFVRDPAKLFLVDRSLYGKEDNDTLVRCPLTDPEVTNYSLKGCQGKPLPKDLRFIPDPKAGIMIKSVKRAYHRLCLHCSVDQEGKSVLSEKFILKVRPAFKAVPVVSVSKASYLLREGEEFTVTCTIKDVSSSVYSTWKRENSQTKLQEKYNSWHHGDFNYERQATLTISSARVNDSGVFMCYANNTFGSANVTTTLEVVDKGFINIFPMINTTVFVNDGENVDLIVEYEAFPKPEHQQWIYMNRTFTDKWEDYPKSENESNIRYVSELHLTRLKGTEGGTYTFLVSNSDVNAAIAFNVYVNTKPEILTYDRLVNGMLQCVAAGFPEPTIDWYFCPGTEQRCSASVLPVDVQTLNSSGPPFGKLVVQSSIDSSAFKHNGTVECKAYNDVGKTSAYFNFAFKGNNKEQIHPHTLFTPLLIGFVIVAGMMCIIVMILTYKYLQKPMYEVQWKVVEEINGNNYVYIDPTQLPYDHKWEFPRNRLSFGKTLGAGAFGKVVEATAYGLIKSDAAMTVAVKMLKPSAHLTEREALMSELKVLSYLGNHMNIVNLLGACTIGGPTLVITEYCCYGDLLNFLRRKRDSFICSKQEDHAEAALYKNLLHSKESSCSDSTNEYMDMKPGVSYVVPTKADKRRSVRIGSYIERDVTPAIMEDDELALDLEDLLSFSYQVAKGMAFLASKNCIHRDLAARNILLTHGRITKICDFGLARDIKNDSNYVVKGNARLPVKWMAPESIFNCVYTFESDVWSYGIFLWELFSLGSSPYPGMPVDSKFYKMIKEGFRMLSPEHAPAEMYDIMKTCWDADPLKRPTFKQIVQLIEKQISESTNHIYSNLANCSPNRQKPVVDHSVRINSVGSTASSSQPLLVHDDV
Method: as §2

PDGFRA = target: T3, PDGFRA (Homo sapiens, UniProt P16234); experiment: KINOMEscan binding assay
T3 construct: purchased Discoverx (KINOMEscan service)
T3 sequence (P16234 24-1089): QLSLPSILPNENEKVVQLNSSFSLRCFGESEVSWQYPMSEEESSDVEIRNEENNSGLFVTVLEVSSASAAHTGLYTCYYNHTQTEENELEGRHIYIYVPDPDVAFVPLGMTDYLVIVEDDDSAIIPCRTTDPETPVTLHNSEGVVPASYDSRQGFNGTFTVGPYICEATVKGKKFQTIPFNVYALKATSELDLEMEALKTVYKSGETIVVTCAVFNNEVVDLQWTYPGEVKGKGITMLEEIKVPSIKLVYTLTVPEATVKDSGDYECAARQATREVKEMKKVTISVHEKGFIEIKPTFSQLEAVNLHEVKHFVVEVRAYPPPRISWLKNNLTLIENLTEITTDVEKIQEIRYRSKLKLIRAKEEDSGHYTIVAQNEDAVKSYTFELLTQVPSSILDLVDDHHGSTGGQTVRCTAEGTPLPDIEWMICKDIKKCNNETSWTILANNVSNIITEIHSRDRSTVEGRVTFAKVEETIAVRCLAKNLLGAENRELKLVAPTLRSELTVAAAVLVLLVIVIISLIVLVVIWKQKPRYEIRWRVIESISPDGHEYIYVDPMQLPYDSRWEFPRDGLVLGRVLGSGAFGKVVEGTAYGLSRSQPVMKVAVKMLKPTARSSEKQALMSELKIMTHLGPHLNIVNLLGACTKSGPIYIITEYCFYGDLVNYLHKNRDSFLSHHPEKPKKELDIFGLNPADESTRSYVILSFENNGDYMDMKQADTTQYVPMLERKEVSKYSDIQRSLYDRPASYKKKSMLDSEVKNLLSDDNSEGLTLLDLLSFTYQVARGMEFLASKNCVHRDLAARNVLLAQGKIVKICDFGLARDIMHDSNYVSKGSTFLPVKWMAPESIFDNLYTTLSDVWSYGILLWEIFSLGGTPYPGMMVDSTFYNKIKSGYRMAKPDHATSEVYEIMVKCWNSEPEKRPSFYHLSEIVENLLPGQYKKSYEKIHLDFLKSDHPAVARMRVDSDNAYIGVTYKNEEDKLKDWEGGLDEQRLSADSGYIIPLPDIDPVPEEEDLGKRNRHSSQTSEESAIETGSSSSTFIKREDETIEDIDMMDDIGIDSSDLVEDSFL
Method: as §2

[6] = target: T4, ABL1(E255K) phosphorylated (Homo sapiens, UniProt P00519, E255K); experiment: KINOMEscan binding assay
T4 construct: purchased Discoverx (KINOMEscan service)
Method: as §2

PDGFRB = target: T5, PDGFRB (Homo sapiens, UniProt P09619); experiment: KINOMEscan binding assay
T5 construct: purchased Discoverx (KINOMEscan service)
T5 sequence (P09619 33-1106): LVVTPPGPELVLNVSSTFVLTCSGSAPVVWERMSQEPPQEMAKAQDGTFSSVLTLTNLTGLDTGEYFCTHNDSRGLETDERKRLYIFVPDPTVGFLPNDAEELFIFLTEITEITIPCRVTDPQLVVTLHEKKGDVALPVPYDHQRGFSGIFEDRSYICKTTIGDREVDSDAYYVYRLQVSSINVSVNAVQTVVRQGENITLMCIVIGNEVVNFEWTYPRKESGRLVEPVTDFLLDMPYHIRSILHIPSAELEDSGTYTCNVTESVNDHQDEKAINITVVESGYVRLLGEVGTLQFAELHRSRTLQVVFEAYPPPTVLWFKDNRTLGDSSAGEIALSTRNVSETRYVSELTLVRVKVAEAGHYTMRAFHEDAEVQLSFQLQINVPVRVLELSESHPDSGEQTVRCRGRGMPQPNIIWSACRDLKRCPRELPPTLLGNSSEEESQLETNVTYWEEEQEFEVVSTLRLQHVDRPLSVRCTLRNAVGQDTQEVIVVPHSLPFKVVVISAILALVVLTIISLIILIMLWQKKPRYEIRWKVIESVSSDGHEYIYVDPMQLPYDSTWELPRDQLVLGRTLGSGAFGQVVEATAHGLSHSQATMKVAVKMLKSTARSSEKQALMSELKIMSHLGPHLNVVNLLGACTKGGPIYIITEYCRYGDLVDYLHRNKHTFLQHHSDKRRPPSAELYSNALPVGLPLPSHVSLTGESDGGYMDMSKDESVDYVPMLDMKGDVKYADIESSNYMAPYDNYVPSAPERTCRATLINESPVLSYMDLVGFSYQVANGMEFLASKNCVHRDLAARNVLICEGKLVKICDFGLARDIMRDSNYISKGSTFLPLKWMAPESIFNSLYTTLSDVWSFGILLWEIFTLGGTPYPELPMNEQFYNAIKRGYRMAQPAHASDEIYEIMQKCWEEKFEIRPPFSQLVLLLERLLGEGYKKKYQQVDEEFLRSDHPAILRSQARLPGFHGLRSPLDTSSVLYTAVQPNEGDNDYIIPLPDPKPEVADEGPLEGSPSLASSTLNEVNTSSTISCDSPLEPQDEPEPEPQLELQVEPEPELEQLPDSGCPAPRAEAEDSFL
Method: as §2

BRAF = target: T6, BRAF (Homo sapiens, UniProt P15056); experiment: KINOMEscan binding assay
T6 construct: purchased Discoverx (KINOMEscan service)
T6 sequence (P15056 whole entry): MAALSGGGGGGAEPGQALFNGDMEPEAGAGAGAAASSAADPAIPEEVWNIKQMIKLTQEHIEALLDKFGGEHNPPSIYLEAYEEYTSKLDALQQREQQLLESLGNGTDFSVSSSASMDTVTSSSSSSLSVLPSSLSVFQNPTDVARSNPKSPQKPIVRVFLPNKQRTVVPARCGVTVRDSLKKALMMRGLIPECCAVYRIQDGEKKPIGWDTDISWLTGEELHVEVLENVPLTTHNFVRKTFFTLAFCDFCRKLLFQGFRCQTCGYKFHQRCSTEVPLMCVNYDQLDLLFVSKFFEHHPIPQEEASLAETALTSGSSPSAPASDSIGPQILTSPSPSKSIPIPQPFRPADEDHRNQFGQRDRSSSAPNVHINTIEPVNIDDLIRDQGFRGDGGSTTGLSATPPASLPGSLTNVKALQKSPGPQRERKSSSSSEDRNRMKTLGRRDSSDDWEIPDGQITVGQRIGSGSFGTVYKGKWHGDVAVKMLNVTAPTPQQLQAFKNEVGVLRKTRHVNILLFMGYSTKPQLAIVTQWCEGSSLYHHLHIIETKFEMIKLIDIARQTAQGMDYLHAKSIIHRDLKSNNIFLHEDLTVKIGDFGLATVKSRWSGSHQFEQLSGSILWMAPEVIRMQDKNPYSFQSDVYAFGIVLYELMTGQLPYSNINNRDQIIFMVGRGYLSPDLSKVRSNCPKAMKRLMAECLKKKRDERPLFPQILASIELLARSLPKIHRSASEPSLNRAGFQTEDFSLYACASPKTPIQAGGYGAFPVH
Method: as §2

[7] = target: T7, ABL1(T315I) phosphorylated (Homo sapiens, UniProt P00519, T315I); experiment: KINOMEscan binding assay
T7 construct: purchased Discoverx (KINOMEscan service)
Method: as §2

ABL1 nonphosphorylated = target: T8, ABL1 nonphosphorylated (Homo sapiens, UniProt P00519); experiment: KINOMEscan binding assay
T8 construct: purchased Discoverx (KINOMEscan service)
Method: as §2

ABL1 phosphorylated = target: T9, ABL1 phosphorylated (Homo sapiens, UniProt P00519); experiment: KINOMEscan binding assay
T9 construct: purchased Discoverx (KINOMEscan service)
Method: as §2

BRAF(V600E) = target: T10, BRAF(V600E) (Homo sapiens, UniProt P15056, V600E); experiment: KINOMEscan binding assay
T10 construct: purchased Discoverx (KINOMEscan service)
T10 sequence (P15056 whole entry V600E): as the sequence (P15056 whole entry) above, with V600E counted along it
Method: as §2

NCI 60 cell line panel [8] = test system: NCI 60 cell line panel; set-up: method as in NCI Cellminer database; conditions: NCI 60 panel; ref NCI Cellminer database; read-out: average GI 50 over the panel; cited from earlier work
[9] = cited from earlier work
[10] = test system: reactive oxygen species (ROS) generation; set-up: method as in Locatelli et al. [2004]; conditions: ref Locatelli et al. [2004]; cited from earlier work
[11] = percent of control at 10 μM, read-out: POC (10 μM)

Compound: COC(=O)Nc1nc2ccc(C(=O)c3cccs3)cc2[nH]1 [nocodazole]
protein kinase inhibition [1]: inhibit several protein kinases including Bcr–Abl

Compound: COC(=O)Nc1nc2ccc(Sc3ccccc3)cc2[nH]1 [fenbendazole]
survival index (SI) [2]: closely followed

Compound: CCCOc1ccc2nc(NC(=O)OC)[nH]c2c1 [Oxibendazole, oxibendazole]
survival index (SI) [2]: lowest SIs

Interactions Mapped (panel of 97 kinases): 20
S-Score(35) (panel of 97 kinases): 0.19
pIC50 [5]: > 5.30
pKd (JNK3; average of two determinations): 6.38
remaining binding at 10 µM (JNK3; [11]): 5.2%
pKd (KIT; average of two determinations): 6.34
remaining binding at 10 µM (KIT; [11]): 2.9%
pKd (PDGFRA; average of two determinations): 6.47
remaining binding at 10 µM (PDGFRA; [11]): 15%
pKd ([6]; average of two determinations): 7.11
remaining binding at 10 µM [6, 11]: 0.3%
pKd (PDGFRB; average of two determinations): 6.25
remaining binding at 10 µM (PDGFRB; [11]): 2.3%
pKd (BRAF; average of two determinations): 6.72
remaining binding at 10 µM (BRAF; [11]): 13%
pKd ([7]; average of two determinations): 6.77
remaining binding at 10 µM [7, 11]: 4.8%
pKd (ABL1 nonphosphorylated; average of two determinations): 6.26
remaining binding at 10 µM (ABL1 nonphosphorylated; [11]): 2.4%
pKd (ABL1 phosphorylated; average of two determinations): 6.89
remaining binding at 10 µM (ABL1 phosphorylated; [11]): 0.95%
pKd (BRAF(V600E); average of two determinations): 6.60
remaining binding at 10 µM (BRAF(V600E); [11]): 5.1%
Compound: COC(=O)Nc1nc2ccc(C(=O)c3ccccc3)cc2[nH]1 [mebendazole]
computerized tomography evaluation, liver ([3]; after six weeks of therapy): good partial remission
computerized tomography evaluation, metastases in the lungs and lymph nodes ([3]; after six weeks of therapy): near complete remission
adverse effects [3]: no subjective adverse effects at all
kinase binding (panel of 97 kinases): potent inhibitor of several kinases with high affinity
frequency of sensitive cell lines (positive z scores) (NCI 60 cell line panel [4]; colon cancer cell lines of NCI 60): 80%
frequency of sensitive cell lines (positive z scores) (NCI 60 cell line panel [4]; lung cancer subpanel of NCI 60): 25%
frequency of sensitive cell lines (positive z scores) (NCI 60 cell line panel [4]; renal cancer subpanel of NCI 60): 28%
survival (glioma): significantly increase survival
GI50 (NCI 60 cell line panel [8]): 460 nM

Compound: CCCSc1ccc2nc(NC(=O)OC)[nH]c2c1 [albendazole]
kinase binding (panel of 97 kinases): no kinase binding was observed
Interactions Mapped (panel of 97 kinases): 1
S-Score(35) (panel of 97 kinases): 0
dose-limiting toxicity ([9]; dose-escalating phase-I trial, ref Pourgholami et al. [2010]): neutropenia
toxicity in clinical study ([9]; patients with advanced cancers, ref Morris et al. [2001]): neutropenia
ROS generation [10]: strong reactive oxygen species (ROS) generation
survival index (SI) [2]: closely followed

Reference: publication PMC3825534 (Journal of Cancer Research and Clinical Oncology, 2013)
